The values below come from US8389555B2, “Medicaments” (Motac Neuroscience Limited, priority 2007, dated 2013).

Broadly, the Ki is a dissociation constant, usually derived from enzyme kinetics or from competition with a known ligand.

Molecules are shown by their SMILES. Where a name gives a salt, the structure may show the parent alone.

Data set [1] deals with T1, recombinant human D2(short) dopamine receptor (Homo sapiens, UniProt P14416).
T1 construct: expressed in transfected cells; host or cells: CHO-D2S cells (per Hayes et al. 1992)
Briefly: Dopamine D2S receptor binding assay ([3H]spiperone, CHO cell membranes). The following applies: human D2S receptors in CHO cells, 0.2 nM [3H]spiperone, mean ± SEM; read-out: Affinity Ki (D2). In a few lines:
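Membranes from CHO cells expressing human D2S receptor, incubated with 0.2 nM [3H]spiperone in Tris-HCl pH 7.4 with NaCl, KCl, CaCl2, MgCl2, 120 min at 25 °C; nonspecific binding with 10 μM BP 897. Filtration and scintillation counting; seven concentrations in triplicate, Ki from IC50 by Cheng-Prusoff, mean±SEM.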

The subject of data set [2] is 6-OHDA-lesioned rat model of Parkinson's disease. Briefly: Rotational behaviour in 6-OHDA-lesioned rat model of Parkinson's disease. The format is in vivo. The following applies: for onset of action / short or long acting in vivo: in vivo model; for onset and persistence of activity: following oral or intra-peritoneal application, FIGS. 12, 16, 17. How it is done: Preparation of 6-OHDA-Lesioned Rat Model of Parkinson's Disease
Male Sprague-Dawley rats weighing 290-350 g were used. The rats were housed in a temperature-controlled room under a 12 hour light/dark cycle with free access to food and water. Thirty minutes prior to surgery, the animals were given the monoamine oxidase-B inhibitor pargyline (5 mg/kg i.p.;) and the noradrenaline uptake inhibitor desipramine (25 mg/kg i.p.). The rats were then placed under general anaesthesia (Flourothane) and immobilised in stereotaxic frame. Following reflection of cranial skin and periostium, a small bur-hole was made in the skull on the right side and a small puncture was made in the dura mater. Each animal then received a unilateral injection of 2.5 μl of the neurotoxin 6-hydroxydopamine hydrobromide (6-OHDA HBr; 5 mg/ml in sterile water with 0.1% ascorbic acid; i.e. 12.5 μg 6-OHDA per rat) into the right medial forebrain bundle at stereotaxic co-ordinates −2.8 mm from bregma, 2 mm lateral to the midline, and 9 mm below the skull. The 6-OHDA injection was made over a 5 minute period using a 5 μl Hamilton syringe. The rats were allowed to recover for 3 weeks following the lesion. Animals then received 0.05 mg/kg s.c. apomorphine to assess the extent of lesion. Animals displaying clear rotational behaviour directed contralateral to the lesioned side were selected for further studies.
Only lesioned animals were used in the study (as determined by apomorphine rotation).
Animals were administered a dose of the test compound at 1 mg/kg or 3 mg/kg (i.p.) and rotational behaviour was assessed for up to 4 hours following drug administration using automated rotometers. Alternatively, animals were administered a dose of the test compound at 10 mg/kg (p.o.) and rotational behaviour was assessed for up to 8 hours following drug administration using automated rotometers.
Each compound was administered to at least 5 rats.
Total net rotational activity. This parameter is calculated as the total number of 180° rotations (net contralateral) over the duration of the experiment.
Data were analysed independently for each novel compound with appropriate parametric statistics. All tests were carried out in Graphpad Prism Version 3.

For data set [3], the target named is T2, human dopamine D3 receptors (Homo sapiens, UniProt P35462).
T2 construct: expressed in transfected cells
Kind of data set: Dopamine D3 receptor binding assay ([3H]spiperone, CHO cell membranes). The note with it: for Ki: human D3 receptors in CHO cells, 0.2 nM [3H]spiperone, mean ± SEM, read-out: Affinity Ki (D3); for Selectivity Ki(D2)/Ki(D3): ratio of Ki(D2) to Ki(D3). The essentials:
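CHO cell membranes expressing human D3 incubated with 0.2 nM [3H]spiperone in Tris-HCl pH 7.4 with 120 mM NaCl, 5 mM KCl, 2 mM CaCl2, 1 mM MgCl2 at 25° C for 120 min; nonspecific binding with 10 μM BP 897. Filtration read-out; seven concentrations in triplicate, Ki via Cheng-Prusoff.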

The conditions of data set [4]: patients treated with pramipexole; cited from earlier work.

T2 sequence (P35462 whole entry): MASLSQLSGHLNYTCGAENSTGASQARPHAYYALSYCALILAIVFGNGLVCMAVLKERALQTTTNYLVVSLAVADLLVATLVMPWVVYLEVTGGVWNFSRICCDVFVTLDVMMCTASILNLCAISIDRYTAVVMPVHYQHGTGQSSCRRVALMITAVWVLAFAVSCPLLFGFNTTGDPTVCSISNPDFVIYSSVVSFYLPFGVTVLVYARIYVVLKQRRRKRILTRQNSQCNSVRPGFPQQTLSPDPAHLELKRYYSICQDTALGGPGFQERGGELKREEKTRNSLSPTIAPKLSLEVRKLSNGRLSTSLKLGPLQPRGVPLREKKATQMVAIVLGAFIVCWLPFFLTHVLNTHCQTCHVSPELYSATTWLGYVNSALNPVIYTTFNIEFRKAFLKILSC
T1 sequence (P14416 1-414 isoform P14416-2): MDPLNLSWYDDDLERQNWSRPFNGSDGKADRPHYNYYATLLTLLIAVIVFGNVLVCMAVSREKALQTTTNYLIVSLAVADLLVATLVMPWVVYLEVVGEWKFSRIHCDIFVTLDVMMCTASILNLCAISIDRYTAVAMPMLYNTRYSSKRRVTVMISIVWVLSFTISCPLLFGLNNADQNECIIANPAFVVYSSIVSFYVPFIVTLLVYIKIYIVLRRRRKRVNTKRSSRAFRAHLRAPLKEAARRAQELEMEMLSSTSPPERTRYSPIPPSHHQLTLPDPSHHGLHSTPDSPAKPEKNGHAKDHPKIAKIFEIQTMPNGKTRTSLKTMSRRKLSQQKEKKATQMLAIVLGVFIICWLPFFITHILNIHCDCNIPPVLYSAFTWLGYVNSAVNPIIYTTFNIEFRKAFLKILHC

Regarding `CCCN(CCCCC(=O)Nc1ccc2ccccc2c1)C1CCc2ncsc2C1` (stereo not shown) [Compound 9, 5-[Propyl-(4,5,6,7-tetrahydro-benzothiazol-6-yl)-amino]-pentanoic acid naphthalen-2-ylamide], the Ki in data set [1] was 299 ± 38 nM. Further, in data set [2], the onset of action result is “fast acting” and the “short or long acting in vivo” value is listed as “short acting”. Also, in data set [3], the Ki amounted to 0.55 ± 0.19 nM and the “Selectivity Ki(D2)/Ki(D3)” value is reported as 542.
`CCCN(CCCCNC(=O)N1CCc2ccccc2C1)C1CCc2ncsc2C1` (stereo not shown) [Compound 24, 3,4-Dihydro-1H-isoquinoline-2-carboxylic acid {4-[propyl-(4,5,6,7-tetrahydro-benzothiazol-6-yl)-amino]-butyl}-amide]: the Ki in data set [1] came to 1560 ± 464 nM. In addition, the “short or long acting in vivo” value in data set [2] is on record as “short acting”. For the same compound, in data set [3], the Ki came out at 3.95 ± 1.17 nM and the “Selectivity Ki(D2)/Ki(D3)” value is 394.
As to `CCCN(CCCCNC(=O)N1CCc2cc(OC)c(OC)cc2C1)C1CCc2ncsc2C1` (stereo not shown) [Compound 25, 6,7-Dimethoxy-3,4-dihydro-1H-isoquinoline-2-carboxylic acid {4-[propyl-(4,5,6,7-tetrahydro-benzothiazol-6-yl)-amino]-butyl}-amide], the Ki in data set [1] stood at 7610 ± 1810 nM. Moreover, the “short or long acting in vivo” value in data set [2] is on record as “short acting”. In data set [3], the Ki was 2.67 ± 1.32 nM and the “Selectivity Ki(D2)/Ki(D3)” value was determined as 2850.
For `CCN(CCN(CC)C1CCc2ncsc2C1)C1CCc2ncsc2C1` (stereo not shown) [Compound 33, N,N′-Diethyl-N,N′-bis-(4,5,6,7-tetrahydro-benzothiazol-6-yl)-ethane-1,2-diamine], the inhibition constant Ki in data set [1] is 468 ± 13.5 nM. The “onset and persistence of activity” value in data set [2] was “rapid onset of activity and also have a sustained effect”. In data set [3], the Ki is 22.7 ± 13.5 nM and the “Selectivity Ki(D2)/Ki(D3)” value was 19.
For the compound `CCCN(CCN1CCN(c2ccccc2OC)CC1)C1CCc2ncsc2C1` (stereo not shown) [Compound 34, {2-[4-(2-Methoxy-phenyl)-piperazin-1-yl]-ethyl}-propyl-(4,5,6,7-tetrahydro-benzothiazol-6-yl)-amine], the inhibition constant (Ki) in data set [1] is 132 ± 40 nM. Also, in data set [2], the “onset and persistence of activity” value is “rapid onset of activity and also have a sustained effect”; the onset of action entry is “fast acting”. For the same compound, the “action at increasing doses” value in data set [2] (i.p. at 1 and 3 mg/kg) was “substantially constant action”. Moreover, in data set [3], the Ki was 4.5 ± 0.7 nM and the “Selectivity Ki(D2)/Ki(D3)” value was 29.
Take `CCCN(CCN1CCN(C(=O)c2cccc3ccccc23)CC1)C1CCc2ncsc2C1` (stereo not shown) [Compound 39, [2-(4-Naphthoyl-piperazin-1-yl)-ethyl]-propyl-(4,5,6,7-tetrahydro-benzothiazol-6-yl)-amine]: in data set [1], the Ki is 3180 ± 1730 nM. Also, in data set [2], the onset of action result is recorded as “fast acting” and the “short or long acting in vivo” value is “short acting”. In data set [3], the inhibition constant (Ki) amounted to 12.9 ± 3.8 nM and the “Selectivity Ki(D2)/Ki(D3)” value worked out at 247.
Consider `CCCN(CCCCC(=O)NC1Cc2ccccc2C1)C1CCc2ncsc2C1` (stereo not shown) [Compound 67, N-(2,3-dihydro-1H-inden-2-yl)-5-(propyl-(4,5,6,7-tetrahydrobenzothiazol-6-yl)amino)pentanamide], for which the Ki in data set [1] is 1390 ± 304 nM. Further, in data set [2], the “short or long acting in vivo” value is reported as “short acting”. Moreover, in data set [3], the Ki was 0.9 ± 0.05 nM and the “Selectivity Ki(D2)/Ki(D3)” value worked out at 1550.
As for `CCCN(CCCCC(=O)NC12CC3CC(CC(C3)C1)C2)C1CCc2ncsc2C1` (stereo not shown) [Compound 68, N-Adamantanyl-5-(propyl-(4,5,6,7-tetrahydrobenzothiazol-6-yl)amino)pentanamide], in data set [1], the Ki stood at 457 ± 228 nM. Further, the “onset and persistence of activity” value in data set [2] is “sustained activity over a number of hours”. In data set [3], the Ki worked out at 1.54 ± 0.46 nM and the “Selectivity Ki(D2)/Ki(D3)” value is on record as 297.
As to `CCCN[C@H]1CCc2nc(N)sc2C1` [pramipexole, (S)-2-amino-4,5,6,7-tetra-hydro-6-(propylamino)benzothiazole dihydrochloride mono-hydrate], the “patients who may develop oedema” value in data set [4] is 1-10%.
